Where two headings read alike, the source gives them in different places.
What was measured:
human AR = target: T1, human AR (Homo sapiens, UniProt P10275); experiment: cell-based; settings: read-out: AR Binding Ki
T1 construct: expressed in transfected cells; host or cells: CV-1 cells (African green monkey kidney fibroblasts)
T1 sequence (P10275 1-920): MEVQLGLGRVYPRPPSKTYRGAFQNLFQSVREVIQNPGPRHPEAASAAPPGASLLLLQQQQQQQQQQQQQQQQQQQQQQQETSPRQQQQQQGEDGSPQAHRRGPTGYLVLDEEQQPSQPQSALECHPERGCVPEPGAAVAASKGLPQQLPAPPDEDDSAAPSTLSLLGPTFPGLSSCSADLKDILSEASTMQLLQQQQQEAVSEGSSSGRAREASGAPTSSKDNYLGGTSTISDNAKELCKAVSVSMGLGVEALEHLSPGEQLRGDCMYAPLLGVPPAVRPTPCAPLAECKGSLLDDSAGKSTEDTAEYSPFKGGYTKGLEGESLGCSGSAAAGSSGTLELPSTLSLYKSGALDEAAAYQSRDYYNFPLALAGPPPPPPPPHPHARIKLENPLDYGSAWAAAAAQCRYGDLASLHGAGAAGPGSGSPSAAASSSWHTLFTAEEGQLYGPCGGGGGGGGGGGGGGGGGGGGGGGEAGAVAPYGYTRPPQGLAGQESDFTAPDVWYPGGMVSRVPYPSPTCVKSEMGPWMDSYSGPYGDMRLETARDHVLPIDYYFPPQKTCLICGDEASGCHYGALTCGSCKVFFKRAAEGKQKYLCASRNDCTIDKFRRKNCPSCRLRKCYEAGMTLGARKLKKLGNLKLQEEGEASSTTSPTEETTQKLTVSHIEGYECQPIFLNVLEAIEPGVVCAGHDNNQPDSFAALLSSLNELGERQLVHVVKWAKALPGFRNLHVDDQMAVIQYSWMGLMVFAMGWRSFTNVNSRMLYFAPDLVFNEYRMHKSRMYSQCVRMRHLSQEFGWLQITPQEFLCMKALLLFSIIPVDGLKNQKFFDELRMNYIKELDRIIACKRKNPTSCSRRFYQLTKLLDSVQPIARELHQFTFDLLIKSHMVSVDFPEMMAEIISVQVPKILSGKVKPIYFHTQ

MR = target: T2, MR (Homo sapiens, UniProt P08235); experiment: Co-transfection assay, cross-reactivity on MR; format: cell-based
T2 construct: expressed in transfected cells
T2 sequence (P08235 1-984): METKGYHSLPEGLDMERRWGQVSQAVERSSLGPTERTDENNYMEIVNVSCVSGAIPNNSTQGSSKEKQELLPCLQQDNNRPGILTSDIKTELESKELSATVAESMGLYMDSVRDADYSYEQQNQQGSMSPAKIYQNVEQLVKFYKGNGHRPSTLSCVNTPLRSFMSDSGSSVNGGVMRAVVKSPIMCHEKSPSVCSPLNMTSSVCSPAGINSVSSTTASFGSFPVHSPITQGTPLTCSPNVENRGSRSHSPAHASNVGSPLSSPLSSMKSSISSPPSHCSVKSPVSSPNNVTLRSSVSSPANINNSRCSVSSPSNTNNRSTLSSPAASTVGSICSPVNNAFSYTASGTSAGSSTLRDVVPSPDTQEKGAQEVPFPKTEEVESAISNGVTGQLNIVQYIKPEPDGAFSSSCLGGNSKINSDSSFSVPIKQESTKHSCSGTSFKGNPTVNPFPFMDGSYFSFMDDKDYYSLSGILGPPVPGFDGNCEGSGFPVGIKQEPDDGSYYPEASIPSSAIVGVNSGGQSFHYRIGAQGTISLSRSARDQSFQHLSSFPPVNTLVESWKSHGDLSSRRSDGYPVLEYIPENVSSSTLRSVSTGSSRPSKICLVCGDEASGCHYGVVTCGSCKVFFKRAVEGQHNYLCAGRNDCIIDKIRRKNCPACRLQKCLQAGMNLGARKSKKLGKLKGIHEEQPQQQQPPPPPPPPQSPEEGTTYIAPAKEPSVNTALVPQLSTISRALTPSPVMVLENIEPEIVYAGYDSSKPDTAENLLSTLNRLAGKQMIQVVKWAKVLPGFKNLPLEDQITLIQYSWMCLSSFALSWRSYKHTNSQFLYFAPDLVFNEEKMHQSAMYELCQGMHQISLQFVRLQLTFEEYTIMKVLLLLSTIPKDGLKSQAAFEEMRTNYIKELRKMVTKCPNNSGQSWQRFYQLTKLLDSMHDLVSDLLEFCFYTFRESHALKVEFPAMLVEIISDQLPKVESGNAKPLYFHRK

[1] = test system: immature castrated male rat; experiment: Immature castrated male rat model with testosterone silastic implant, ventral prostate and seminal vesicle weights; format: in vivo; settings: for ED50: Rattus norvegicus, po, 72 h; for Seminal Vesicles weight / Ventral Prostate weight: 3 days
Text: The activity of selected compounds of the present invention as AR antagonists was *~ investigated in an immature castrated male rat model. A recognized test of the antiandrogen activity of a given compound, as described in L. G. Hershberger et al., 83 Proc. Soc. Exptl. […] Similar approaches have been used in the rat and in hamsters. […] Dermatol.
The basis of this assay is the fact that male sexual accessory organs, such as the prostate and seminal vesicles, play an important role in reproductive function. […] See F. Labrie et al., 16 Clin. Invest. […] However, this is not a major pathway since, in both animals and humans, castration without concomitant adrenalectomy leads to almost complete involution of the prostate and seminal vesicles. […] See M. C. […] Since the male sex organs are the tissues most responsive to modulation by androgen activity, this model is used to determine the androgen-dependent growth of the sex accessory organs in immature castrated rats.
Immature male rats (50-60 g, 21 day-old Sprague-Dawley, Harlan) were castrated under metofane anesthesia. […] As a negative control, a group of castrated animals received empty 10 mm silastic implants. Animal groups were dosed for 3 days by oral gavage as follows:
At the end of the 3-day treatment, the animals were sacrificed, and the ventral prostates and seminal vesicles were collected and weighed. Organ weight data were normalized to body weight of each animal and expressed as mg/100 g body weight. Results were analyzed by analysis of variance followed by the Dunnett's test. Data were transformed to comply with the normality and variance homogeneity criteria required to utilize the analysis of variance and Dunnett's test. The following data transformations were used for the ventral prostate and seminal vesicle: square root and power 0.7 respectively. Thereafter, the data were fitted to a four-parameter logistic equation and potencies derived from the fitted estimates. The same data transformations were used for the equation-fitting phase of the data analysis.
The gain and loss of sexual organ weights reflect the changes of cell number (DNA content) and cell mass (protein content), depending upon the serum androgen concentrations. […] Therefore, measurement of organ wet weights is sufficient to indicate the bioactivity of androgens and androgen antagonists.

## CC1(C)CCc2cc3c(C(F)(F)F)c(F)c(=O)[nH]c3cc2N1 [Compound 105, 7-Fluoro-1,2,3,4-tetrahydro-2,2-dimethyl-6-trifluoromethyl-8-pyridono[5,6-g]quinoline]
Human AR
  Ki: 0.021 ± 0.011 µM
MR
  IC50: 2.26 µM
[1]; 30 mg/kg
  suppression of seminal vesicle weight relative to castrate levels (in words): complete suppression to castrate levels
  suppression of ventral prostate weight relative to castrate levels (in words): suppresses ventral prostate weight to castrate levels
[1]; read-out: Potency (ED50) Weighted Average ± SE, Seminal Vesicle Weight
  ED50: 7.5 ± 1.3 mg/kg
[1]; read-out: Potency (ED50) Weighted Average ± SE, Ventral Prostate Weight
  ED50: 3.1 ± 0.7 mg/kg
[1]; T implant + 0.1 mg/kg oral
  Seminal Vesicles weight: 28.1 ± 3.6 (5) mg/100 g body weight
  Ventral Prostate weight: 74.8 ± 5.4 (5) mg/100 g body weight
[1]; T implant + 1 mg/kg oral
  Seminal Vesicles weight: 27.4 ± 1.7 (5) mg/100 g body weight
  Ventral Prostate weight: 63.6 ± 6.6 (5) mg/100 g body weight
[1]; T implant + 3 mg/kg oral
  Seminal Vesicles weight: 24.9 ± 0.9 (5) mg/100 g body weight
  Ventral Prostate weight: 48.4 ± 6.6 (5) mg/100 g body weight
[1]; T implant + 10 mg/kg oral
  Seminal Vesicles weight: 15.2 ± 0.3 (5) mg/100 g body weight
  Ventral Prostate weight: 40.0 ± 1.3 (5) mg/100 g body weight
[1]; T implant + 30 mg/kg oral
  Seminal Vesicles weight: 7.1 ± 1.4 (5) mg/100 g body weight
  Ventral Prostate weight: 24.6 ± 2.0 (5) mg/100 g body weight
[1]; T implant + 100 mg/kg oral
  Seminal Vesicles weight: 7.6 ± 1.4 (5) mg/100 g body weight
  Ventral Prostate weight: 23.6 ± 2.2 (5) mg/100 g body weight

Source: patent US6534516B1, “Androgen receptor modulator compounds and methods” (Ligand Pharmaceuticals Incorporated, priority 1996, dated 2003)
